The results in this text go back to US20200048267A1, “OGA INHIBITOR COMPOUNDS” (Janssen Pharmaceutica NV, priority 2017, published 2020).

By Emax is commonly meant the greatest response seen or fitted, relative to the assay's reference.

For assay [1], the target named is T1, recombinant human Meningioma Expressed Antigen 5 (MGEA5), also referred to as O-GlcNAcase (OGA) (Homo sapiens, UniProt O60502).
T1 construct: Full length OGA enzyme was purchased at OriGene (cat # TP322411); purchased OriGene TP322411
T1 sequence (O60502 1-916): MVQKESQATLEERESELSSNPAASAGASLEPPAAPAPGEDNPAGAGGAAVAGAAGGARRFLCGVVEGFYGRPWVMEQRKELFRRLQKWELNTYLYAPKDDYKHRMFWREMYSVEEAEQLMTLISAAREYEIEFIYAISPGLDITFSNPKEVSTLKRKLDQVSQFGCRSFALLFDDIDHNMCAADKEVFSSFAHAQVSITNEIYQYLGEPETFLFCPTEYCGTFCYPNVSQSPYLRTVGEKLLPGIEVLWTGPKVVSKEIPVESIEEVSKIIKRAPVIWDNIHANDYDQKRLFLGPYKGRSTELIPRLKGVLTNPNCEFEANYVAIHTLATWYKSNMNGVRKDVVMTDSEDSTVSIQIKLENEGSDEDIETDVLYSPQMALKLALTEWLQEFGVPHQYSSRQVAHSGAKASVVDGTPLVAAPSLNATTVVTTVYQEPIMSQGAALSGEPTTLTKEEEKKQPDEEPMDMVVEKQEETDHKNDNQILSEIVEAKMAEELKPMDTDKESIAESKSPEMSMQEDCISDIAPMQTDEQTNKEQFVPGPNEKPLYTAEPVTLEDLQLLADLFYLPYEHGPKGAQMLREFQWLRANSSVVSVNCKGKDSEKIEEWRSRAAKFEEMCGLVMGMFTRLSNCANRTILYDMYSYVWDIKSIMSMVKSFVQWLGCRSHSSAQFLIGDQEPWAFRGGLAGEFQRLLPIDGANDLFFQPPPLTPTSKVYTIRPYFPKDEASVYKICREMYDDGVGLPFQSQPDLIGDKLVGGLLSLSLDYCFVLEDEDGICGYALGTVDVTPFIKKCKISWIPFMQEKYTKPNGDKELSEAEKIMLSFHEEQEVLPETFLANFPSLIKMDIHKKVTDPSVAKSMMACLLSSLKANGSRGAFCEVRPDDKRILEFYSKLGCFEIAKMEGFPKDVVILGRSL
Kind of assay: OGA biochemical assay (inhibition of FM-GlcNAc hydrolysis, fluorescence). The following applies: for Emax: read-out: ENZYMATIC Emax (%); for IC50: read-out: ENZYMATIC hOGA, pIC50 (converted). The text has this: The assay is based on the inhibition of the hydrolysis of fluorescein mono-β-D-N-Acetyl-Glucosamine (FM-GlcNAc) (Mariappa et al. 2015, Biochem J 470:255) by the recombinant human Meningioma Expressed Antigen 5 (MGEA5), also referred to as O-GlcNAcase (OGA). The hydrolysis FM-GlcNAc (Marker Gene technologies, cat # M1485) results in the formation of B-D-N-glucosamineacetate and fluorescein. The fluorescence of the latter can be measured at excitation wavelength 485 nm and emission wavelength 538 nm. An increase in enzyme activity results in an increase in fluorescence signal. Full length OGA enzyme was purchased at OriGene (cat # TP322411). The enzyme was stored in 25 mM Tris.HCl, pH 7.3, 100 mM glycine, 10% glycerol at −20° C. Thiamet G and GlcNAcStatin were tested as reference compounds (Yuzwa et al. 2008 Nature Chemical Biology 4:483; Yuzwa et al. 2012 Nature Chemical Biology 8:393). The assay was performed in 200 mM Citrate/phosphate buffer supplemented with 0.005% Tween-20. 35.6 g Na2HPO4 2 H2O (Sigma, # C0759) were dissolved in 1 L water to obtain a 200 mM solution. 19.2 g citric acid (Merck, # 1.06580) was dissolved in 1 L water to obtain a 100 mM solution. pH of the sodium phosphate solution was adjusted with the citric acid solution to 7.2. The buffer to stop the reaction consists of a 500 mM Carbonate buffer, pH 11.0. 734 mg FM-GlcNAc were dissolved in 5.48 mL DMSO to obtain a 250 mM solution and was stored at −20° C. OGA was used at 2 nM concentration and FM-GlcNAc at a 100 uM final concentration. Dilutions were prepared in assay buffer.
50 nl of a compound dissolved in DMSO was dispensed on Black Proxiplate™ 384 Plus Assay plates (Perkin Elmer, #6008269) and 3 μl fl-OGA enzyme mix added subsequently. Plates were pre-incubated for 60 min at room temperature and then 2 μl FM-GlcNAc substrate mix added. […] Plates were briefly centrifuged for 1 min at 1000rpm and incubate at room temperature for 6 h. To stop the reaction 5 μl STOP buffer were added and plates centrifuge again 1 min at 1000 rpm.
Fluorescence was quantified in the Thermo Scientific Fluoroskan Ascent or the PerkinElmer EnVision with excitation wavelength 485 nm and emission wavelength 538 nm.
For analysis a best-fit curve is fitted by a minimum sum of squares method. From this an IC50 value and Hill coefficient was obtained. High control (no inhibitor) and low control (saturating concentrations of standard inhibitor) were used to define the minimum and maximum values.

The target in assay [2] is T2, OGA (Homo sapiens, UniProt O60502).
T2 construct: HEK293 cells inducible for P301L mutant human Tau (isoform 2N4R) were established at Janssen; endogenous in cells; host or cells: HEK293 cells inducible for P301L mutant human Tau (2N4R)
T2 sequence (O60502 1-916): T1 sequence (O60502 1-916)
Kind of assay: OGA cellular assay (ICC detection of O-GlcNAcylated proteins in HEK293 cells inducible for P301L mutant human Tau). The format is cell-based. The settings on record: 6 hours incubation; for EC50: read-out: CELLULAR hOGA, pEC50 (converted). As for the experimental part: HEK293 cells inducible for P301L mutant human Tau (isoform 2N4R) were established at Janssen. Thiamet-G was used for both plate validation (high control) and as reference compound (reference EC50 assay validation). OGA inhibition is evaluated through the immunocytochemical (ICC) detection of O-GlcNAcylated proteins by the use of a monoclonal antibody (CTD110.6; Cell Signaling, #9875) detecting O-GlcNAcylated residues as previously described (Dorfmueller et al. 2010 Chemistry & biology, 17:1250). Inhibition of OGA will result in an increase of O-GlcNAcylated protein levels resulting in an increased signal in the experiment. Cell nuclei are stained with Hoechst to give a cell culture quality control and a rough estimate of immediate compounds toxicity, if any. ICC pictures are imaged with a Perkin Elmer Opera Phenix plate microscope and quantified with the provided software Perkin Elmer Harmony 4.1.
Cells were propagated in DMEM high Glucose (Sigma, #D5796) following standard procedures. 2 days before the cell assay cells are split, counted and seeded in Poly-D-Lysine (PDL) coated 96-wells (Greiner, #655946) plate at a cell density of 12,000 cells per cm^2 (4,000 cells per well) in 100 µl of Assay Medium (Low Glucose medium is used to reduce basal levels of GlcNAcylation) (Park et al. 2014 The Journal of biological chemistry 289:13519). At the day of compound test medium from assay plates was removed and replenished with 90 μl of fresh Assay Medium. 10 μl of compounds at a 10 fold final concentration were added to the wells. Plates were centrifuged shortly before incubation in the cell incubator for 6 hours. DMSO concentration was set to 0.2%. Medium is discarded by applying vacuum. For staining of cells medium was removed and cells washed once with 100 μl D-PBS (Sigma, #D8537). From next step onwards unless other stated assay volume was always 50 μl and incubation was performed without agitation and at room temperature. Cells were fixed in 50 μl of a 4% paraformaldehyde (PFA, Alpha aesar, # 043368) PBS solution for 15 minutes at room temperature. […] Before analysis samples were washed 2 times manually for 5 minutes in ICC base buffer.
Imaging is performed using Perkin Elmer Phenix Opera using a water 20× objective and recording 9 fields per well. Intensity readout at 488 nm is used as a measure of O-GlcNAcylation level of total proteins in wells. To assess potential toxicity of compounds nuclei were counted using the Hoechst staining. IC50-values are calculated using parametric non-linear regression model fitting. As a maximum inhibition Thiamet G at a 200 uM concentration is present on each plate. In addition, a concentration response of Thiamet G is calculated on each plate.

On to `CCc1cncc(N2CCC3(CCN(Cc4cnc(NC(C)=O)s4)C3)C2)n1` (stereo not drawn) [Product 19], for which, in assay [1], the Emax came out at 102% and the IC50 is 117 nM. Moreover, in assay [2], the Emax is 56.4% and the EC50 is 871 nM.
On the same counts, the results for `CC(=O)Nc1ncc(CN2CCC3(CCN(c4ccnc(C(F)(F)F)c4)C3)C2)s1` (stereo not drawn) [Product 65] are 101%, 26.3 nM, 56.8% and 724 nM.
On the same counts, the results for `Cc1cc(N2CCC3(CCN(C(C)c4ccc5c(c4)OCCO5)C3)C2)cc(C)n1` (stereo not drawn) [Product 38] are 101%, 30.2 nM, 68.9% and 389 nM.
Taken in the same sequence, the figures for `COc1cc(N2CCC3(CCN(Cc4cnc(NC(C)=O)s4)C3)C2)ccn1` (stereo not drawn) [Product 63] were 102%, 6.92 nM, 75.1% and 219 nM.
As to `CC(=O)Nc1ncc(CN2CCC3(CCN(c4ccc(C)nc4C#N)C3)C2)s1` (stereo not drawn) [Product 57], in assay [1], the Emax was 101% and the IC50 was 26.3 nM. In assay [2], the Emax is 56.1% and the EC50 was 794 nM.
As for `CC(=O)Nc1ncc(CN2CCC3(CCN(c4cc(C(F)(F)F)cc(C)n4)C3)C2)s1` (stereo not drawn) [Product 62], in assay [1], the Emax was 100% and the IC50 was 42.7 nM. For the same molecule, in assay [2], the Emax was found to be 22.2% and the EC50 is over 1000 nM.
For `COc1cc(C)cc(N2CCC3(CCN(Cc4cnc(NC(C)=O)s4)C3)C2)n1` (stereo not drawn) [Product 66], in assay [1], the Emax worked out at 99.7% and the IC50 is 69.2 nM. In addition, in assay [2], the Emax is 38.5% and the EC50 is over 1000 nM.
Turning to `CC(=O)Nc1ncc(CN2CCC3(CCN(c4cc(C)nc(C(F)(F)F)c4)C3)C2)s1` (stereo not drawn) [Product 28], in assay [1], the Emax turned out to be 101% and the IC50 is 19.1 nM. In assay [2], the Emax stood at 73.4% and the EC50 is 380 nM.
On the same counts, the results for `Cc1cc(N2CCC3(CCN(Cc4ccc5sc(C)nc5c4)C3)C2)cc(C(F)(F)F)n1` (stereo not drawn) [Product 33] are 96.2%, 69.2 nM, 6.9% and over 1000 nM.
Taken in the same sequence, the figures for `Cc1cc(N2CCC3(CCN(Cc4ccc5scnc5c4)C3)C2)nc(C)n1` (stereo not drawn) [Product 21] were 98.1%, 170 nM, 23.6% and over 1000 nM.
Take `CC(=O)Nc1ncc(CN2CCC3(CCN(c4ncc(C)cc4C)C3)C2)s1` (stereo not drawn) [Product 49]: in assay [1], the “ENZYMATIC hOGA; pIC50” value was found to be 8.41 and the Emax is 99.6%. Further, in assay [2], the Emax was 88.8% and the EC50 was 45.7 nM.
Regarding `CC(=O)Nc1ncc(CN2CCC3(CCN(c4cncc(C5CC5)n4)C3)C2)s1` (stereo not drawn) [Product 13], in assay [1], the “ENZYMATIC hOGA; pIC50” value amounted to 7.69 and the Emax was determined as 100%. This molecule gave an Emax in assay [2] of 92.3%.
`CC(=O)Nc1ncc(CN2CCC3(CCN(c4cncc(C)c4)C3)C2)s1` (stereo not drawn) [Product 68]: in assay [1], the Emax stood at 103% and the IC50 was 10.2 nM. Moreover, in assay [2], the Emax was found to be 92.9% and the EC50 was 138 nM.
On the same counts, the results for `COc1cncc(N2CCC3(CCN(Cc4cnc(NC(C)=O)s4)C3)C2)c1` (stereo not drawn) [Product 67] are 99.4%, 34.7 nM, 45.6% and 537 nM.
Taken in the same sequence, the figures for `CC(=O)Nc1ncc(CN2CCC3(CCN(c4cncc(C(F)(F)F)c4)C3)C2)s1` (stereo not drawn) [Product 69] were 99.1%, 49 nM, 57.6% and 676 nM.
Taken in the same sequence, the figures for `Cc1cc(N2CCC3(CCN(Cc4nc5ccccc5[nH]4)C3)C2)nc(C)n1` (stereo not drawn) [Product 30] were 100%, 324 nM, 7.7% and over 1000 nM.
As for `CCOc1cc(N2CCC3(CCN(Cc4cnc(NC(C)=O)s4)C3)C2)cc(C)n1` (stereo not drawn) [Product 59], in assay [1], the Emax was found to be 100% and the IC50 was 3.63 nM. Also, in assay [2], the Emax was determined as 84.4% and the EC50 was 39.8 nM.
In the case of `CNc1cncc(N2CCC3(CCN(Cc4cnc(NC(C)=O)s4)C3)C2)n1` (stereo not drawn) [Product 26], in assay [1], the Emax is 101% and the IC50 was 61.7 nM. Moreover, in assay [2], the Emax was 25.1% and the EC50 is over 1000 nM.
On the same counts, the results for `COc1cc(N2CCC3(CCN(Cc4cnc(NC(C)=O)s4)C3)C2)cc(C)n1` (stereo not drawn) [Product 58] are 102%, 5.89 nM, 86.3% and 56.2 nM.
